# Biological target: recombinant Mcl-1 (residues 172-327) (Homo sapiens (Human), UniProt Q07820)
# Assay: Fluorescence polarization anisotropy competition assay (FITC-Bak or FITC-Bim BH3 peptide) with Mcl-1
# Type: binding
# Conditions: Table 2; Ki bins given in nM; FITC-Bak or FITC-Bim peptide competition; Ki converted from IC50; read-out: Ki for Inhibition of Mcl-1
# recombinant Mcl-1 (residues 172-327), sequence (Q07820 172-327): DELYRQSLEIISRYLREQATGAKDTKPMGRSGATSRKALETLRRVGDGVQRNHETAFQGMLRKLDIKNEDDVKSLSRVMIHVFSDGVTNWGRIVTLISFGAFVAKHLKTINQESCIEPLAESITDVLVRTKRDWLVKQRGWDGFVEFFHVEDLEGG
row,SMILES,Ki [nM]
1,"Cc1cc(OCCCc2c(C(=O)N(C)c3cccc(C(=O)O)c3)[nH]c3c(-c4c(C)nn(C)c4C)c(Cl)ccc23)cc(C)c1Cl [I-187, 3-(6-chloro-3-(3-(4-chloro-3,5-dimethylphenoxy)propyl)-N-methyl-7-(1,3,5-trimethyl-1H-pyrazol-4-yl)-1H-indole-2-carboxamido)benzoic acid]",< 50
2,"Cc1cc(OCCCc2c3n(c4c(-c5c(C)nn(C)c5C)c(Cl)ccc24)C(C)[C@@H](C)N(Cc2ccc(C(=O)O)cn2)C3=O)cc(C)c1Cl (stereo partly drawn) [I-146, 6-(((3R)-7-chloro-10-(3-(4-chloro-3,5-dimethylphenoxy)propyl)-3,4-dimethyl-1-oxo-6-(1,3,5-trimethyl-1H-pyrazol-4-yl)-3,4-dihydropyrazino[1,2-a]indol-2(1H)-yl)methyl)nicotinic acid]",< 50
3,"Cc1cc(OCCCc2c(C(=O)NCCC(=O)NS(=O)(=O)c3cccnc3)[nH]c3ccccc23)cc(C)c1Cl [I-15, 3-(3-(4-chloro-3,5-dimethylphenoxy)propyl)-N-(3-oxo-3-(pyridine-3-sulfonamido)propyl)-1H-indole-2-carboxamide]",101 to 299
4,"Cc1cc(OCCCc2c3n(c4c(-c5c(C)nn(C)c5C)c(Cl)ccc24)CCCN(Cc2ccc(C(=O)NS(=O)(=O)c4ccc(OCc5cccnc5)cc4)cc2)C3=O)cc(C)c1Cl [I-310, 4-((8-chloro-11-(3-(4-chloro-3,5-dimethylphenoxy)propyl)-1-oxo-7-(1,3,5-trimethyl-1H-pyrazol-4-yl)-4,5-dihydro-1H-[1,4]diazepino[1,2-a]indol-2(3H)-yl)methyl)-N-((4-(pyridin-3-ylmethoxy)phenyl)sulfonyl)benzamide]",< 50
5,"Cc1cc(OCCCc2c3n(c4c(-c5c(C)nn(C)c5C)c(Cl)ccc24)CCCN(c2cc(C(=O)O)c4ccn(Cc5cccnc5)c4c2)C3=O)cc(C)c1Cl [I-241, 6-(8-chloro-11-(3-(4-chloro-3,5-dimethylphenoxy)propyl)-1-oxo-7-(1,3,5-trimethyl-1H-pyrazol-4-yl)-4,5-dihydro-1H-[1,4]diazepino[1,2-a]indol-2(3H)-yl)-1-(pyridin-3-ylmethyl)-1H-indole-4-carboxylic acid]",< 50
6,"Cc1cc(OCCCc2c3n(c4c(-c5c(C)nn(C)c5C)c(Cl)ccc24)C(C)CN(Cc2cccc(C(=O)O)c2)C3=O)cc(C)c1Cl (centres unmarked) [I-131, 3-((7-chloro-10-(3-(4-chloro-3,5-dimethylphenoxy)propyl)-4-methyl-1-oxo-6-(1,3,5-trimethyl-1H-pyrazol-4-yl)-3,4-dihydropyrazino[1,2-a]indol-2(1H)-yl)methyl)benzoic acid]",< 50
7,"Cc1cc(OCCCc2c(C(=O)NCc3cccc(C(=O)O)c3)[nH]c3c(-c4c(CN5CCCC5)nn(C)c4C)cccc23)cc(C)c1Cl [I-34, 3-((3-(3-(4-chloro-3,5-dimethylphenoxy)propyl)-7-(1,5-dimethyl-3-(pyrrolidin-1-ylmethyl)-1H-pyrazol-4-yl)-1H-indole-2-carboxamido)methyl)benzoic acid]",< 50
8,"Cc1ccncc1-c1cc(C(=O)O)cc(N2CCCn3c(c(CCCOc4cc(C)c(Cl)c(C)c4)c4ccc(Cl)c(-c5c(C)nn(C)c5C)c43)C2=O)c1 [I-234, 3-(8-chloro-11-(3-(4-chloro-3,5-dimethylphenoxy)propyl)-1-oxo-7-(1,3,5-trimethyl-1H-pyrazol-4-yl)-4,5-dihydro-1H-[1,4]diazepino[1,2-a]indol-2(3H)-yl)-5-(4-methylpyridin-3-yl)benzoic acid]",< 50
9,"Cc1cc(OCCCc2c3n(c4c(-c5c(C)nn(C)c5C)c(Cl)ccc24)CCCN(c2cc(C(=O)O)cc(N(C)C)c2)C3=O)cc(C)c1Cl [I-216, 3-(8-chloro-11-(3-(4-chloro-3,5-dimethylphenoxy)propyl)-1-oxo-7-(1,3,5-trimethyl-1H-pyrazol-4-yl)-4,5-dihydro-1H-[1,4]diazepino[1,2-a]indol-2(3H)-yl)-5-(dimethylamino)benzoic acid]",< 50
10,"Cc1cc(OCCCc2c3n(c4c(-c5c(C)nn(C)c5C)c(Cl)ccc24)CCCN(c2cccc(C(=O)NS(=O)(=O)C4CC4)c2)C3=O)cc(C)c1Cl [I-369, 3-(8-chloro-11-(3-(4-chloro-3,5-dimethylphenoxy)propyl)-1-oxo-7-(1,3,5-trimethyl-1H-pyrazol-4-yl)-4,5-dihydro-H-[1,4]diazepino[1,2-a]indol-2(3H)-yl)-N-(cyclopropylsulfonyl)benzamide]",< 50
11,"Cc1cc(OCCCc2c3n(c4c(-c5c(C)nn(C)c5C)c(Cl)ccc24)CCCN(Cc2cc(C(=O)O)cc(Cl)n2)C3=O)cc(C)c1Cl [I-349, 2-chloro-6-((8-chloro-1-(3-(4-chloro-3,5-dimethylphenoxy)propyl)-1-oxo-7-(1,3,5-trimethyl-1H-pyrazol-4-yl)-4,5-dihydro-1H-[1,4]diazepino[1,2-a]indol-2(3H)-yl)methyl)isonicotinic acid]",< 50
12,"Cc1cc(OCCCc2c3n(c4c(-c5c(C)nn(C)c5C)c(Cl)ccc24)CCCN(c2cc(C(=O)O)cc4c2c(Br)cn4C)C3=O)cc(C)c1Cl [I-256, 3-bromo-4-(8-chloro-11-(3-(4-chloro-3,5-dimethylphenoxy)propyl)-1-oxo-7-(1,3,5-trimethyl-1H-pyrazol-4-yl)-4,5-dihydro-1H-[1,4]diazepino[1,2-a]indol-2(3H)-yl)-1-methyl-1H-indole-6-carboxylic acid]",< 50
13,"Cc1cc(OCCCc2c(C(=O)Nc3ccc(C(=O)O)c(N(C)CCN(C)C)c3)[nH]c3c(-c4c(C)nn(C)c4C)c(Cl)ccc23)cc(C)c1Cl [I-92, 4-(6-chloro-3-(3-(4-chloro-3,5-dimethylphenoxy)propyl)-7-(1,3,5-trimethyl-1H-pyrazol-4-yl)-1H-indole-2-carboxamido)-2-((2-(dimethylamino)ethyl)(methyl)amino)benzoic acid]",< 50
14,"Cc1cc(OCCCc2c3n(c4c(-c5c(C)nn(C)c5C)c(Cl)ccc24)CCCN(c2cc(CN(C)C)cc(C(=O)O)c2)C3=O)cc(C)c1Cl [I-226, 3-(8-chloro-11-(3-(4-chloro-3,5-dimethylphenoxy)propyl)-1-oxo-7-(1,3,5-trimethyl-1H-pyrazol-4-yl)-4,5-dihydro-1H-[1,4]diazepino[1,2-a]indol-2(3H)-yl)-5-((dimethylamino)methyl)benzoic acid]",< 50
15,"Cc1cc(OCCCc2c(C(=O)NCCC(=O)NS(=O)(=O)c3ccccc3)[nH]c3ccccc23)cc(C)c1Cl [I-14, 3-(3-(4-chloro-3,5-dimethylphenoxy)propyl)-N-(3-oxo-3-(phenylsulfonamido)propyl)-1H-indole-2-carboxamide]",51 to 100
16,"Cc1cc(OCCCc2c(C(=O)NCCS(=O)(=O)NC(=O)C34CC5CC(CC(C5)C3)C4)[nH]c3ccccc23)cc(C)c1Cl [I-55, N-(2-(N-((3r,5r,7r)-adamantane-1-carbonyl)sulfamoyl)ethyl)-3-(3-(4-chloro-3,5-dimethylphenoxy)propyl)-1H-indole-2-carboxamide]",301 to 500
17,"Cc1cc(OCCCc2c3n(c4c(-c5c(C)nn(C)c5C)c(Cl)ccc24)CCN(Cc2cccc(C(=O)O)c2)C3=O)cc(C)c1Cl [I-141, 3-((7-chloro-10-(3-(4-chloro-3,5-dimethylphenoxy)propyl)-1-oxo-6-(1,3,5-trimethyl-1H-pyrazol-4-yl)-3,4-dihydropyrazino[1,2-a]indol-2(1H)-yl)methyl)benzoic acid]",< 50
